Measurements as given in ChEMBL document CHEMBL2429821, “A Casein kinase 1/Checkpoint kinase 1 pyrazolo-pyridine protein kinase inhibitor as novel activator of the p53 pathway” (Bioorg Med Chem Lett, 2013).
Values belong to the compound of their own block, whether it stands above or below them. The source made the active and inactive calls. No cut-off for these calls is given here.

Key:
[1] = molecular target: T1, Casein kinase I/MDM2 (Homo sapiens) (UniProt Q00987+P48729); assay: Inhibition of CK1-MDM2 complex in human A375 cells assessed as increase in […] protein level at 0.2 to 40 uM after 24 hrs by immunoblotting analysis; format: cell-based; details: A-375
[2] = molecular target: T1, Casein kinase I/MDM2 (Homo sapiens); assay: Inhibition of CK1-MDM2 complex in human A375 cells assessed as decrease in MDM2 protein level at 0.2 to 40 uM after 24 hrs by immunoblotting analysis; format: cell-based; details: A-375
[3] = molecular target: T1, Casein kinase I/MDM2 (Homo sapiens); assay: Inhibition of CK1-MDM2 complex in human A375 cells assessed as increase in p53 protein level at 0.2 to 40 uM after 24 hrs by immunoblotting analysis; format: cell-based; details: A-375
[4] = molecular target: T2, Mitogen-activated protein kinase 14 (Homo sapiens, UniProt Q16539); assay: Inhibition of human p38alpha MAPK assessed as residual activity at 1 uM relative to control
[5] = molecular target: T2, Mitogen-activated protein kinase 14; assay: Inhibition of human p38alpha MAPK assessed as residual activity at 10 uM relative to control
[6] = system: A-375; assay: Cell cycle arrest in human A375 cells assessed as accumulation at G2-M phase at 80 uM after 48 hrs by FACS flow cytometric analysis (reference value: 17.3%); format: functional
[7] = molecular target: T1, Casein kinase I/MDM2 (Homo sapiens); assay: Inhibition of CK1-MDM2 complex in human A375 cells assessed as increase in p21 protein level at 5 to 40 uM compound transfected into cells using attractene carrier after 48 hrs by immunoblotting analysis; format: cell-based; details: A-375
[8] = molecular target: T1, Casein kinase I/MDM2 (Homo sapiens); assay: Inhibition of CK1-MDM2 complex in human A375 cells assessed as increase in p53 protein level at 5 to 40 uM compound transfected into cells using attractene carrier after 48 hrs by immunoblotting analysis; format: cell-based; details: A-375
[9] = molecular target: T1, Casein kinase I/MDM2 (Homo sapiens); assay: Inhibition of CK1-MDM2 complex in human A375 cells assessed as effect on p21 protein level at 0.2 to 80 uM after 48 hrs by immunoblotting analysis; format: cell-based; details: A-375
[10] = molecular target: T1, Casein kinase I/MDM2 (Homo sapiens); assay: Inhibition of CK1-MDM2 complex in human A375 cells assessed as effect on MDM2 protein level at 0.2 to 80 uM after 48 hrs by immunoblotting analysis; format: cell-based; details: A-375
[11] = molecular target: T1, Casein kinase I/MDM2 (Homo sapiens); assay: Inhibition of CK1-MDM2 complex in human A375 cells assessed as effect on p53 protein level at 0.2 to 80 uM after 48 hrs by immunoblotting analysis; format: cell-based; details: A-375
[12] = molecular target: T2, Mitogen-activated protein kinase 14; assay: Inhibition of human p38alpha MAPK in presence of 50 uM ATP
[13] = molecular target: Mitogen-activated protein kinase 1 (Homo sapiens) (UniProt P28482); assay: Inhibition of human MAPK2 assessed as residual activity at 1 uM relative to control
[14] = molecular target: MAP kinase-activated protein kinase 2 (Homo sapiens) (UniProt P49137); assay: Inhibition of human MAPKAPK2 assessed as residual activity at 10 uM relative to control
[15] = species: Homo sapiens; assay: Inhibition of human VEGFR assessed as residual activity at 10 uM relative to control
[16] = molecular target: T1, Casein kinase I/MDM2 (Homo sapiens); assay: Inhibition of CK1-MDM2 complex in human A375 cells assessed as increase in p53 protein level at 0.2 to 5 uM after 48 hrs by immunoblotting analysis; format: cell-based; details: A-375
[17] = system: A-375; assay: Cell cycle arrest in human A375 cells assessed as accumulation at S phase at 40 uM after 48 hrs by FACS flow cytometric analysis (reference value: 25.1%); format: functional
[18] = system: A-375; assay: Cell cycle arrest in human A375 cells assessed as accumulation at G0-G1 phase at 40 uM after 48 hrs by FACS flow cytometric analysis (reference value: 55.4%); format: functional
[19] = system: A-375; assay: Cell cycle arrest in human A375 cells assessed as accumulation at sub-G1 phase at 40 uM after 48 hrs by FACS flow cytometric analysis (reference value: 2.17%); format: functional
[20] = system: A-375; assay: Cell cycle arrest in human A375 cells assessed as accumulation at G2-M phase at 20 uM after 48 hrs by FACS flow cytometric analysis (reference value: 17.3%); format: functional
[21] = system: A-375; assay: Cell cycle arrest in human A375 cells assessed as accumulation at G0-G1 phase at 20 uM after 48 hrs by FACS flow cytometric analysis (reference value: 55.4%); format: functional
[22] = system: A-375; assay: Cell cycle arrest in human A375 cells assessed as accumulation at sub-G1 phase at 20 uM after 48 hrs by FACS flow cytometric analysis (reference value: 2.17%); format: functional
[23] = system: A-375; assay: Cell cycle arrest in human A375 cells assessed as accumulation at G0-G1 phase at 10 uM after 48 hrs by FACS flow cytometric analysis (reference value: 55.4%); format: functional
[24] = system: A-375; assay: Cell cycle arrest in human A375 cells assessed as accumulation at sub-G1 phase at 10 uM after 48 hrs by FACS flow cytometric analysis (reference value: 2.17%); format: functional
[25] = system: A-375; assay: Cell cycle arrest in human A375 cells assessed as accumulation at G2-M phase at 5 uM after 48 hrs by FACS flow cytometric analysis (reference value: 17.3%); format: functional
[26] = system: A-375; assay: Cell cycle arrest in human A375 cells assessed as accumulation at S phase at 5 uM after 48 hrs by FACS flow cytometric analysis (reference value: 25.1%); format: functional
[27] = system: A-375; assay: Cell cycle arrest in human A375 cells assessed as accumulation at G0-G1 phase at 5 uM after 48 hrs by FACS flow cytometric analysis (reference value: 55.4%); format: functional
[28] = system: A-375; assay: Cell cycle arrest in human A375 cells assessed as accumulation at sub-G1 phase at 5 uM after 48 hrs by FACS flow cytometric analysis (reference value: 2.17%); format: functional
[29] = system: A-375; assay: Cell cycle arrest in human A375 cells assessed as accumulation at G2-M phase at 1 uM after 48 hrs by FACS flow cytometric analysis (reference value: 17.3%); format: functional
[30] = system: A-375; assay: Cell cycle arrest in human A375 cells assessed as accumulation at S phase at 1 uM after 48 hrs by FACS flow cytometric analysis (reference value: 25.1%); format: functional
[31] = system: A-375; assay: Cell cycle arrest in human A375 cells assessed as accumulation at G0-G1 phase at 1 uM after 48 hrs by FACS flow cytometric analysis (reference value: 55.4%); format: functional
[32] = system: A-375; assay: Cell cycle arrest in human A375 cells assessed as accumulation at sub-G1 phase at 1 uM after 48 hrs by FACS flow cytometric analysis (reference value: 2.17%); format: functional
[33] = system: HCT-116; assay: Cytotoxicity against human HCT116 cells expressing p53 assessed as cell viability at 1 to 32 uM after 24 hrs by MTT assay; format: functional, cell-based
[34] = system: HCT-116; assay: Cytotoxicity against p53-deficient human HCT116 cells assessed as cell viability at 1 to 32 uM after 24 hrs by MTT assay; format: functional, cell-based
[35] = system: A-375; assay: Cytotoxicity against human A375 cells assessed as cell viability after 24 hrs by MTT assay; format: functional, cell-based; details: A-375, 24 h
[36] = system: A-375; assay: Cytotoxicity against human A375 cells assessed as reduction in cell number at 5 uM after 24 hrs by light microscopic analysis relative to control; format: functional, cell-based
[37] = molecular target: Fibroblast growth factor receptor 1 (Homo sapiens, UniProt P11362); assay: Inhibition of human FGFR1 in presence of 20 uM ATP
[38] = molecular target: Serine/threonine-protein kinase Nek2 (Homo sapiens, UniProt P51955); assay: Inhibition of human NEK2alpha in presence of 50 uM ATP
Chain of Serine/threonine-protein kinase Nek2 (P51955 whole entry): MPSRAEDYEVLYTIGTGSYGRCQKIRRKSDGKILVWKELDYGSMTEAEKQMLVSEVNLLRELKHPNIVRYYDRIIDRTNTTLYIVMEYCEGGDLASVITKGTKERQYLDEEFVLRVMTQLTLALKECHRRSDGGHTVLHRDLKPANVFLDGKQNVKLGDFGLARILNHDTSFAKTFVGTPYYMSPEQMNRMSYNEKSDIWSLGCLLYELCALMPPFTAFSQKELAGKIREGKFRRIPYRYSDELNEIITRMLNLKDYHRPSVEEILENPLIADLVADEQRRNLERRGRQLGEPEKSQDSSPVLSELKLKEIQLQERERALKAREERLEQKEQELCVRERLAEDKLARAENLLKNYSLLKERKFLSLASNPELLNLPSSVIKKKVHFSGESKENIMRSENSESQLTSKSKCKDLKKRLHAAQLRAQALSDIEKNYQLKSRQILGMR

T2 sequence (Q16539 whole entry): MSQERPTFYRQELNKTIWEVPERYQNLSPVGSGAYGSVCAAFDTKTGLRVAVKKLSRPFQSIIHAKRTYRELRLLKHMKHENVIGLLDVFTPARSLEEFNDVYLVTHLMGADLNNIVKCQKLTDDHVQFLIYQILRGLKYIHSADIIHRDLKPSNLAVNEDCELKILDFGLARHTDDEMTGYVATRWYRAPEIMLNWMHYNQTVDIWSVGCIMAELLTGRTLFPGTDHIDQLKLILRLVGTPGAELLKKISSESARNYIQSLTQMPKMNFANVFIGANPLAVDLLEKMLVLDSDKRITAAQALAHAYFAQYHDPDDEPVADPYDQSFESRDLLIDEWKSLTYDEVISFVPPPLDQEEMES
T1 sequence (P48729 whole entry, looked up): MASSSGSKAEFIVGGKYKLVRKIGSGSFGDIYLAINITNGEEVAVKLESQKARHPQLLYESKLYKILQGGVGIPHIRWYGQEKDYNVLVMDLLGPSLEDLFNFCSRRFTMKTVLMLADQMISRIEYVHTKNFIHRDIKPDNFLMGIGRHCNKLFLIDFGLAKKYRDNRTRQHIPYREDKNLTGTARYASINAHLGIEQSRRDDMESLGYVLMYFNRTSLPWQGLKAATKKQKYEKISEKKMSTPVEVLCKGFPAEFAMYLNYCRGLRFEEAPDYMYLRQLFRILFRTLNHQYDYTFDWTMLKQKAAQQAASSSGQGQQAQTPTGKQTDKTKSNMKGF
T1 sequence (Q00987 whole entry, looked up): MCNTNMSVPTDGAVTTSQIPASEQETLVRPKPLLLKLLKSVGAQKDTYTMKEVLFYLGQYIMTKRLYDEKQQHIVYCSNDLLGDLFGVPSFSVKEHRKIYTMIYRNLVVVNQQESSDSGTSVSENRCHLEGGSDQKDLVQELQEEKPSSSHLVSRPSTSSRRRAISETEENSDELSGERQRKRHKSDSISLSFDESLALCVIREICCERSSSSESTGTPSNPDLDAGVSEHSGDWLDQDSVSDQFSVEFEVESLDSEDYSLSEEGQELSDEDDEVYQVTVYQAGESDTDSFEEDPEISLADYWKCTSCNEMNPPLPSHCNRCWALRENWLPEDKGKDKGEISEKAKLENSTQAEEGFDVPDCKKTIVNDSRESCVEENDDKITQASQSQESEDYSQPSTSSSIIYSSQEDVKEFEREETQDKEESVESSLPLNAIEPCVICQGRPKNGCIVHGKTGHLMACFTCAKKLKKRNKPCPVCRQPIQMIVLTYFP
Chain of MAP kinase-activated protein kinase 2 (Homo sapiens) (P49137 whole entry, looked up): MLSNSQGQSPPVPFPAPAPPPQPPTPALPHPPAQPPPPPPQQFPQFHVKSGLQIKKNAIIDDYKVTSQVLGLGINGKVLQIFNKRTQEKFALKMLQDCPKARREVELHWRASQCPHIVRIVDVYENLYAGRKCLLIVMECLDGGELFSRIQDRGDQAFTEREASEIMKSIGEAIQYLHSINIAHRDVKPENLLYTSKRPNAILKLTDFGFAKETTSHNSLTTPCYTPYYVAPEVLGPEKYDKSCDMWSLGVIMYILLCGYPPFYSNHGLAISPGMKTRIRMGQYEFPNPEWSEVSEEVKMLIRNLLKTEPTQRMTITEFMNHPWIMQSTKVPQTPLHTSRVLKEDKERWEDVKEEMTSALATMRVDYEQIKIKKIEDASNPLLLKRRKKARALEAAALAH
Chain of Mitogen-activated protein kinase 1 (Homo sapiens) (P28482 whole entry): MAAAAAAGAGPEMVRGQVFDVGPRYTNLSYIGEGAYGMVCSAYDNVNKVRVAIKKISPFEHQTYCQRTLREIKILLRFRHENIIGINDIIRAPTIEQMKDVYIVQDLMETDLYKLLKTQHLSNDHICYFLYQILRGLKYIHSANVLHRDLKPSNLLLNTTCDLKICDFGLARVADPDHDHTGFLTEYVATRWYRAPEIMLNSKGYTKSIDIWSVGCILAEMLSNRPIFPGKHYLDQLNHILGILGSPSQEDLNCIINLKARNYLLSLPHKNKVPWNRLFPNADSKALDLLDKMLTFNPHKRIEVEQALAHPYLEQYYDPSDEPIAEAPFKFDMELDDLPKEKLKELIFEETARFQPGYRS
Chain of Fibroblast growth factor receptor 1 (P11362 whole entry): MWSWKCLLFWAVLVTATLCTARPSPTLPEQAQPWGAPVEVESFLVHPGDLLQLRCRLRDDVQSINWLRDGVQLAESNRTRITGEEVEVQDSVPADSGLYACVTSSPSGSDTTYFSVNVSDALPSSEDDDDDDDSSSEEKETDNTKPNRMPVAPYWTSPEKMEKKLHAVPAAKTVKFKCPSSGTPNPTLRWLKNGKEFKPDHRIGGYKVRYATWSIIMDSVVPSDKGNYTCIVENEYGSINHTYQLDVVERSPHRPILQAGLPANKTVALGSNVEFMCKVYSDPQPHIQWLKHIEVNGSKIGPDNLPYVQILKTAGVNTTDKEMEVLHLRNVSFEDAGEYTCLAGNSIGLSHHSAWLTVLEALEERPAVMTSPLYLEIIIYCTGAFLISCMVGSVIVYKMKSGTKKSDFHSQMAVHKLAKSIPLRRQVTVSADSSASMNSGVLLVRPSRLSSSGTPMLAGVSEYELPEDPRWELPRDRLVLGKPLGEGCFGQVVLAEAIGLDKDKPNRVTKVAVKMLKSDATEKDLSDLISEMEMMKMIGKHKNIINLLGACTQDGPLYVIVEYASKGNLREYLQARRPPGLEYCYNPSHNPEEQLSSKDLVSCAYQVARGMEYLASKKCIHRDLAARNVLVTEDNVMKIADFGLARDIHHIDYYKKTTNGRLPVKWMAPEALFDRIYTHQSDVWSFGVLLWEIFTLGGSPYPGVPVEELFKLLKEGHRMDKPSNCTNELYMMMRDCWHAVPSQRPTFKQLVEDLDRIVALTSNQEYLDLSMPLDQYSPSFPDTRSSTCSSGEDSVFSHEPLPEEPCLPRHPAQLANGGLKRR

inhibition [1]: Active | inhibition [2]: Active | inhibition [3]: Active | Activity [4]: 84% | Activity [5]: 91%
Compound: CCCC(=O)Nc1n[nH]c2ncc(-c3cccnc3)cc12

inhibition [7]: inactive | inhibition [8]: inactive | inhibition [9]: inactive | inhibition [10]: inactive | inhibition [11]: inactive | IC50 ([12]; read-out: IC50): 2.04 µM | Activity [13]: 106% | Activity [14]: 124% | Activity [15]: 50.8%
Compound: CC(=O)Nc1nccc(-c2c(-c3ccccc3)noc2C)n1
Activity [6]: 16.2%

inhibition [16]: Active | IC50 [37]: 6 µM | IC50 [12]: Not Active | Activity [13]: 91.7% | Activity [14]: 96.4% | Activity [15]: 20.3% | IC50 [38]: 2 µM
Compound: CC(=O)Nc1cccc(-c2cnc3[nH]nc(C)c3c2)c1
Activity [6]: 37.3% | Activity [17]: 14% | Activity [18]: 16.9% | Activity [19]: 56.7% | Activity [20]: 9.65% | Activity [21]: 25.1% | Activity [22]: 50.5% | Activity [23]: 39.6% | Activity [24]: 34.3% | Activity [25]: 15.9% | Activity [26]: 13.7% | Activity [27]: 50.8% | Activity [28]: 19.1% | Activity [29]: 17.8% | Activity [30]: 21.6% | Activity [31]: 57.7% | Activity [32]: 2.37% | Activity [33]: Active | Activity [34]: Active | IC50 [35]: 8 µM | Activity [36]: Active
